Results published in the NIST ThermoML archive (doi:10.1021/je900537y).

Assay: molar heat capacity at constant pressure
Conditions: 101.33 kPa, Liquid, Small sample (50 mg) DSC

NCCCCCCCN [1,7-diaminoheptane]
Conditions | molar heat capacity at constant pressure [J/K/mol]
302.15 K | 332.76
303.65 K | 332.93
305.15 K | 333.11
306.65 K | 333.29
308.15 K | 333.48
309.65 K | 333.67
311.15 K | 333.86
312.65 K | 334.06
314.15 K | 334.27
315.65 K | 334.48
317.15 K | 334.7
318.65 K | 334.92
320.15 K | 335.15
321.65 K | 335.38
323.15 K | 335.62
324.65 K | 335.87
326.15 K | 336.12
327.65 K | 336.38
329.15 K | 336.64
330.65 K | 336.91
332.15 K | 337.18
333.65 K | 337.47
335.15 K | 337.76
336.65 K | 338.05
338.15 K | 338.35
339.65 K | 338.66
341.15 K | 338.98
342.65 K | 339.3
344.15 K | 339.63
345.65 K | 339.97
347.15 K | 340.31
348.65 K | 340.66
350.15 K | 341.02
351.65 K | 341.39
353.15 K | 341.76

NCCCCCCN [1,6-hexanediamine]
Conditions | molar heat capacity at constant pressure [J/K/mol]
314.15 K | 301.08
315.65 K | 301.25
317.15 K | 301.42
318.65 K | 301.59
320.15 K | 301.77
321.65 K | 301.95
323.15 K | 302.14
324.65 K | 302.33
326.15 K | 302.53
327.65 K | 302.74
329.15 K | 302.95
330.65 K | 303.17
332.15 K | 303.4
333.65 K | 303.64
335.15 K | 303.88
336.65 K | 304.13
338.15 K | 304.4
339.65 K | 304.67
341.15 K | 304.95
342.65 K | 305.25
344.15 K | 305.55
345.65 K | 305.87
347.15 K | 306.2
348.65 K | 306.54
350.15 K | 306.89
351.65 K | 307.26
353.15 K | 307.64

NCCCCN [1,4-butanediamine]
Conditions | molar heat capacity at constant pressure [J/K/mol]
298.15 K | 236.33
299.15 K | 236.45
300.65 K | 236.61
302.15 K | 236.77
303.65 K | 236.94
305.15 K | 237.09
306.65 K | 237.25
308.15 K | 237.41
309.65 K | 237.56
311.15 K | 237.72
312.65 K | 237.87
314.15 K | 238.03
315.65 K | 238.18
317.15 K | 238.34
318.65 K | 238.49
320.15 K | 238.65
321.65 K | 238.81
323.15 K | 238.97
324.65 K | 239.13
326.15 K | 239.29
327.65 K | 239.46
329.15 K | 239.63
330.65 K | 239.8
332.15 K | 239.98
333.65 K | 240.15
335.15 K | 240.34
336.65 K | 240.52
338.15 K | 240.71
339.65 K | 240.91
341.15 K | 241.11
342.65 K | 241.32
344.15 K | 241.53
345.65 K | 241.74
347.15 K | 241.97
348.65 K | 242.2
350.15 K | 242.43
351.65 K | 242.68
353.15 K | 242.93

NCCCCCCCCCN [1,9-diaminononane]
Conditions | molar heat capacity at constant pressure [J/K/mol]
311.15 K | 398.93
312.65 K | 399.04
314.15 K | 399.17
315.65 K | 399.32
317.15 K | 399.47
318.65 K | 399.64
320.15 K | 399.82
321.65 K | 400.02
323.15 K | 400.22
324.65 K | 400.44
326.15 K | 400.67
327.65 K | 400.92
329.15 K | 401.17
330.65 K | 401.44
332.15 K | 401.72
333.65 K | 402.02
335.15 K | 402.32
336.65 K | 402.64
338.15 K | 402.97
339.65 K | 403.32
341.15 K | 403.67
342.65 K | 404.04
344.15 K | 404.43
345.65 K | 404.82
347.15 K | 405.23
348.65 K | 405.65
350.15 K | 406.08
351.65 K | 406.52
353.15 K | 406.98

NCCN [ethane-1,2-diamine]
Conditions | molar heat capacity at constant pressure [J/K/mol]
293.15 K | 172.34
294.65 K | 172.43
296.15 K | 172.53
297.65 K | 172.63
298.15 K | 172.66
299.15 K | 172.73
300.65 K | 172.84
302.15 K | 172.95
303.65 K | 173.06
305.15 K | 173.17
306.65 K | 173.29
308.15 K | 173.41
309.65 K | 173.53
311.15 K | 173.66
312.65 K | 173.79
314.15 K | 173.92
315.65 K | 174.05
317.15 K | 174.18
318.65 K | 174.31
320.15 K | 174.45
321.65 K | 174.59
323.15 K | 174.72
324.65 K | 174.86
326.15 K | 175
327.65 K | 175.15
329.15 K | 175.29
330.65 K | 175.43
332.15 K | 175.58
333.65 K | 175.72
335.15 K | 175.86
336.65 K | 176.01
338.15 K | 176.15
339.65 K | 176.3
341.15 K | 176.44
342.65 K | 176.59
344.15 K | 176.73
345.65 K | 176.87
347.15 K | 177.02
348.65 K | 177.16
350.15 K | 177.3
351.65 K | 177.44
353.15 K | 177.58

NCCCN [1,3-propanediamine]
Conditions | molar heat capacity at constant pressure [J/K/mol]
293.15 K | 203.05
294.65 K | 203.21
296.15 K | 203.37
297.65 K | 203.53
298.15 K | 203.59
299.15 K | 203.7
300.65 K | 203.86
302.15 K | 204.03
303.65 K | 204.19
305.15 K | 204.36
306.65 K | 204.53
308.15 K | 204.7
309.65 K | 204.87
311.15 K | 205.04
312.65 K | 205.21
314.15 K | 205.38
315.65 K | 205.56
317.15 K | 205.73
318.65 K | 205.91
320.15 K | 206.08
321.65 K | 206.26
323.15 K | 206.43
324.65 K | 206.61
326.15 K | 206.79
327.65 K | 206.96
329.15 K | 207.14
330.65 K | 207.32
332.15 K | 207.5
333.65 K | 207.67
335.15 K | 207.85
336.65 K | 208.03
338.15 K | 208.2
339.65 K | 208.38
341.15 K | 208.56
342.65 K | 208.73
344.15 K | 208.91
345.65 K | 209.08
347.15 K | 209.26
348.65 K | 209.43
350.15 K | 209.6
351.65 K | 209.78
353.15 K | 209.95
